Common to all, as to format: cell-based
One assay deals with T1, MRGPRX3 (Homo sapiens, UniProt Q96LB0).
T1 construct: inferred from the enzyme-complementation principle of the assay; expressed in transfected cells; host or cells: CHO-K1 beta-arrestin-2 (EA) cells
In words: β-arrestin assay, CHO cells expressing MRGPRX3 (subtype selectivity). The settings on record: 10 µM, versus PSB-20294. As to the method:
Fig. 1 Characterization of MRGPRX2 inhibitor 1. a Chemical structure and molecular weight (MW) of 1. b Concentration-response curve of 1 determined in β-arrestin recruitment assays. CHO cells that recombinantly express MRGPRX2 were employed versus the agonist CST-14 (at its EC80 value of 1.0 µM). […] Data are means ± SEM of 3 biological replicates, performed in duplicates. c MRGPRX subtype selectivity of 1 (10 µM) determined in β-arrestin assays using CHO cells that recombinantly express the respective MRGPRX subtype. MRGPRX1 was activated by BAM-22P (8.5 µM),[19] MRGPRX2 was activated by CST-14 (1 µM), MRGPRX3 was activated by PSB-20294 (1 µM), and MRGPRX4 by PSB-18061 (2.6 µM).[44] […] The effect of each MRGPRX agonist was assessed in the absence and in the presence of 1; results were normalized to the maximal agonist effect. […] Statistical significance was determined by one-way ANOVA (Tukey’s multiple comparisons) test (ns P > 0.05 and ****P < 0.0001) TEXT PRINTED IN THE PICTURE: (a) 1 Hit compound: MW: 241.29 g/mol
Fig. 3 Biological characterization of PSB-172656. a Selectivity of PSB-172656 (100 nM) for MRGPRX2 over MRGPRX1, MRGPRX3, and MRGPRX4 measured in β-arrestin assays utilizing β-arrestin-CHO cells with recombinant expression of the respective receptor. […] Statistical significance was determined by one-way ANOVA (Tukey’s multiple comparison) test (ns P > 0.05). […]

The target of assay [1] is T2, MRGPRX2 (Homo sapiens, UniProt Q96LB1).
T2 sequence (Q96LB1 1-330): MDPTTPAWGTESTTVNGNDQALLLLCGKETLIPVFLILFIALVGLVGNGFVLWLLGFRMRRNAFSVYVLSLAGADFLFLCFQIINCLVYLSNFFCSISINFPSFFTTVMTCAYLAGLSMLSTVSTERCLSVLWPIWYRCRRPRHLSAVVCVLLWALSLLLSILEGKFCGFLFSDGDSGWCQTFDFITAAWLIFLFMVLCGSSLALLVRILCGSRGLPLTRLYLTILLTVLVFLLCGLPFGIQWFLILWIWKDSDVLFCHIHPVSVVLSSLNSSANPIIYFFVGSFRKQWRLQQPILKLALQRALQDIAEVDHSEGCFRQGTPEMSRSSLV
Nature of the assay: β-arrestin assay (agonist mode), β-arrestin CHO cells recombinantly expressing MRGPRX2. The settings on record: for EC50: agonist test, read-out: β-Arrestin assay EC50 ± SEM; for β-Arrestin assay % activation: normalized to CST-14 (EC80 5,000 nM). From the text: Eurofins DiscoverX (Fremont, CA, USA) provided engineered Chinese hamster ovary (CHO) cells stably expressing β-arrestin-2 fused to a large β-galactosidase fragment (enzyme acceptor, EA). These CHO-K1-β-arrestin-2 cells were commercially available (93-0164). CHO-K1-β-arrestin-2 cells that additionally expressed MRGPRX1, -2, or -4 fused to the fragment ProLink™ (PK) were also purchased from the same company (93-0919C2, 93-0309C2, and 3-0541C2A, respectively). CHO cells expressing MRGPRX3 were generated as previously […].[31] The cells were grown in F-12 Ham Nutrient Mixture (Life Technologies) supplemented with 10% FBS, 100 U/mL of penicillin, 100 µg/mL of streptomycin (PAN-Biotech), 300 μg/mL of hygromycin B (PAN-Biotech), and 800 μg/mL of gentamicin (PAN-Biotech) at 37 °C and 5% CO2.).
The assays were carried out as previously described.[22] […] After 30 min of incubation at 37 °C and 5% CO2, Cortistatin-14 (CST-14, Bioscience, Bristol, United Kingdom) or another MRGPRX2 agonist that served as a standard agonist was added, and the mixture was incubated for 90 min at 37 °C and 5% CO2. Next, a detection reagent (50 µL, DiscoverX) was added, and the mixture was incubated at room temperature in the dark for 60 min. Chemiluminescence was measured on a Mithras LB 940 plate reader (Berthold Technologies, Bad Wildbad, Germany). The results represent means ± SEM of three to five independent experiments, each in duplicates.
^d β-Arrestin CHO cells recombinantly expressing MRGPRX2
^f Percentage of activation of normalized to CST-14 (EC80 5,000 nM)

Assay [2] addresses T2, MRGPRX2. In words: β-arrestin recruitment assay (antagonist mode), β-arrestin-CHO cells recombinantly expressing MRGPRX2. On the set-up: expressed in transfected cells. For orientation: Arrestin recruitment assays detect the binding of arrestin to an activated receptor.
The mark [3] stands for this setting: versus CST-14 (EC80 1,000 nM, EC50 483 nM), Cheng-Prusoff, read-out: β-Arrestin assay Ki ± SEM.

Results on 2 molecules are retold here after paper PMC12010006, “Subnanomolar MAS-related G protein-coupled receptor-X2/B2 antagonists with efficacy in human mast cells and disease models” (Signal Transduction and Targeted Therapy, 2025).

Where two headings read alike, the source gives them in different places. Where only a bound is given, the exact number is not on record here.

T1 sequence (Q96LB0 whole entry): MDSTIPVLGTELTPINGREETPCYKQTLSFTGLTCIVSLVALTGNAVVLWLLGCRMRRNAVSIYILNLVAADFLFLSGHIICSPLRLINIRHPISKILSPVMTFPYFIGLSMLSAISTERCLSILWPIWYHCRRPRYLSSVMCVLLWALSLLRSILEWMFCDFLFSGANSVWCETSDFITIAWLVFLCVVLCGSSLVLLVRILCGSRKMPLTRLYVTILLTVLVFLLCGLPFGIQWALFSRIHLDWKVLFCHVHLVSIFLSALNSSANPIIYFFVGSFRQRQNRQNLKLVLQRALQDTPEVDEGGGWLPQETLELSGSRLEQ

As for `CCCc1c(C)[nH]c2nc3ccccc3n2c1=O` [Compound 1, 2-methyl-3-propylbenzo[4,5]imidazo[1,2-a]pyrimidin-4(1H)-one], at MRGPRX3, the “inhibition of MRGPRX3 activation” value was “no inhibition”. Besides, at MRGPRX2 [1], the EC50 (as a rule, the concentration at which the effect is half-maximal) was more than 10000 nM and the “β-Arrestin assay % activation” value was 1%. Also, the IC50 (usually the concentration needed to halve the response being measured) on MRGPRX2 [2] (versus CST-14 (EC80 1.0 µM), read-out: IC50, β-arrestin assay) is 2420 ± 220 nM. In addition, the Ki at MRGPRX2 [2] (setting [3]) was 788 ± 143 nM.

With `CCc1c(C(C)C)[nH]c2nc3cc(F)c(F)cc3n2c1=O` [Compound 24, 3-ethyl-7,8-difluoro-2-isopropylbenzo[4,5]imidazo [1,2-a] pyrimidin-4(1H)-one], the “inhibition of MRGPRX3 activation” value on MRGPRX3 is recorded as “not able to block”. On MRGPRX2 [1], the EC50 is more than 10000 nM. At MRGPRX2 [1], the “β-Arrestin assay % activation” value is -1%. For the same molecule, the “blockade of MRGPRX2 activation” value at MRGPRX2 [2] (10 µM, versus CST-14 (1 µM)) is listed as “completely blocked”. At MRGPRX2 [2] (all investigated agonists), the “difference of Ki versus other agonists from the Ki value versus CST-14” value is less than 2 fold. At MRGPRX2 [2] (versus (R)-ZINC-3573), the Schild plot slope came out at 0.891. Also, the IC50 came out at 11.3 ± 3.1 nM at MRGPRX2 [2] (versus (R)-ZINC-3573 (EC80 2 µM), read-out: IC50 versus (R)-ZINC-3573, β-arrestin assay); 30.5 ± 6.3 nM on MRGPRX2 [2] (versus SP (EC80 3 µM), read-out: IC50 versus substance P, β-arrestin assay); 17.2 ± 0.4 nM at MRGPRX2 [2] (versus clomipramine (EC80 13 µM), read-out: IC50 versus clomipramine, β-arrestin assay). Besides, the Ki at MRGPRX2 [2] (versus (R)-ZINC-3573 (EC80 2 µM), read-out: Ki versus (R)-ZINC-3573, β-arrestin assay) came to 5.44 nM; on MRGPRX2 [2] (versus C48/80 (EC80 18 µM), read-out: Ki versus compound 48/80, β-arrestin assay), 3.68 nM; on MRGPRX2 [2] (setting [3]), 6.81 nM; on MRGPRX2 [2] (versus SP (EC80 3 µM), read-out: Ki versus substance P, β-arrestin assay), 8.82 nM; at MRGPRX2 [2] (versus clomipramine (EC80 13 µM), read-out: Ki versus clomipramine, β-arrestin assay), 7.04 nM. For the same molecule, the Kb at MRGPRX2 [2] (versus (R)-ZINC-3573, read-out: KB value (Schild plot)) was 7.59 nM; at MRGPRX2 [2] (versus (R)-ZINC-3573, read-out: pKB value (Schild plot) (converted)), 7.41 nM; at MRGPRX2 [2] (versus CST-14, read-out: pKB value (Schild plot) (converted)), 6.76 nM. Besides, on MRGPRX2 [2] (versus CST-14 and (R)-ZINC-3573), the “mode of action (inhibition type)” value was “competitive mode of action”. Besides, the “selectivity for MRGPRX2 versus other MRGPRX subtypes” value at MRGPRX2 [2] (versus MRGPRX1, -X3, -X4) was “at least 1000 fold”.
